pIC50: −log10 of the molar value.
Target: T1, recombinant human mPGES-1 (Homo sapiens, UniProt O14684)
T1 construct: made in house; host or cells: Rosetta E. coli (membrane/microsome fraction)
T1 sequence (O14684 1-152): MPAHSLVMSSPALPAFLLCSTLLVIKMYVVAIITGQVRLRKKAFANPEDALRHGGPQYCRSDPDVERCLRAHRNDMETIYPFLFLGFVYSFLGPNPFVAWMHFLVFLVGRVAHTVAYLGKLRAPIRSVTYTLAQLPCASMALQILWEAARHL
Assay: Assay A: mPGES-1 enzyme assay (HTRF detection of PGE2)
Assay type: biochemical
Conditions: biological assay A; microsomes from E. coli expressing recombinant human mPGES-1; read-out: mPGES-1 inhibitory effect IC50
Text: The aim of this assay is to determine the affinity of a test compound for the mPGES-1 enzyme.
• 1. Riendeau, D., R. Aspiotis, D. Ethier, Y. Gareau, E. Grimm, J. Guay, S. Guiral, H. Juteau, J. Mancini, N. Methot, J. Rubin, and R. Friesen, Inhibitors of the inducible microsomal prostaglandin E2 synthase (mPGES-1) derived from MK-886. Bioorg Med Chem Lett, 2005. 15(14): p. 3352-3355. • 2. Cote, B., L. Boulet, C. Brideau, D. Claveau, D. Ethier, R. Frenette, M. Gagnon, A. Giroux, J. Guay, S. Guiral, J. Mancini, E. Martins, F. Masse, N. Methot, D. Riendeau, J. Rubin, D. Xu, H. Yu, Y. Ducharme, and R. Friesen, Substituted phenanthrene imidazoles as potent, selective, and orally active mPGES-1 inhibitors. Bioorg Med Chem Lett, 2007. 17(24): p. 6816-6820. Assay A: mPGES-1 Enzyme Assay List of Reagents Used: • Glutathione (Sigma, G-4251) • Freeze culture in Rosetta E coli expression strain. • LB growth media with Ampillicillin (Amp) final concentration in culture 50 μg/mL • Chloroamphenicol stock 34 mg/mL (chloro) final concentration in culture 34 μg/mL • Sterile growth flasks for 500 mL-1 liter cultures • 0.1 M KP, buffer pH 7.4 • 9.25% HCl • PGH2 (0.25 mM) • Fe (II) Cl2 tetrahydrate, 99% (Sigma, 220229) • 384-well plate with compounds • 96-well plate, polypropylene (Thermo fast 96 skirted VWR) • 384-well plate polypropylene PCR plate (Greiner 785201) • Greiner 384-well plate pp (In vitro cat. no. 781280) • Adhesive sealing film for 96-well plates (Sigma-Aldrich) • Aluminium foil (PCR foil, 310-0030-127-471 from Labora) • PBS (GIBCO 14040) • Prostaglandin E2 Assay (Cisbio, cat. no. 62P2APEC) • Biomek FX robot (Beckman Coulter) • Biomek NX robot (Beckman Coulter) • Multidrop; micro or combi (ThermoLabsystems) • Plate reader: Safire2 (Tecan)
Microsomes from Rosetta E. coli bacteria expressing recombinant human mPGES-1 can be derived as described below:
Inoculate 5 mL LB with Amp and Chloro with bacteria from freeze culture. Incubate overnight at 37° C. with 200 rpm. Thereafter, inoculate 500-800 mL LB containing Amp and Chloro with the 5 mL on culture and grow to OD640 of 0.6-0.8. Chill the culture to +4° C. before induction. Induce the culture with IPTG at a final concentration of 400 μM. Express the protein at room temp 18-23° C. with 200 rpm shaking overnight.
The following steps can be performed on the following day: • 1. Spin down the cells in 250 mL centrifuge flasks for 15 min at 7000 rpm • 2. Dissolve the pellet from 250 mL culture in 12.5 mL homogenization buffer • 3. Disintegrate the cells by sonication, 4×10 seconds at 35% amplitude • 4. Add 2.5 mL MgCl2 (100 mM) and DNase 12.5 μL (0.8 mg/mL) and incubate on ice for 30 min • 5. Spin down the bacteria debris and save the supernatant, 7000 rpm for 15 min • 6. Isolate the protein containing membranes in the supernatant by ultracentrifugation 45000×g for 1 hour. • 7. Discard the supernatant and dissolve the pellet in 20 mM KPi buffer and aliquot the enzyme and store aliquots at −80° C.
Before each experiment is performed an aliquot of the enzyme is thawed and it can then be dissolved in 0.1 M KP, pH 7.4 buffer containing 2.5 mM GSH. 50 μL of this enzyme solution is subsequently dispensed in a 384-well plate at room temperature. 0.5 μL of the inhibitor dissolved in DMSO is thereafter added to each well and incubated for 25 minutes at room temperature. Subsequently, 2 μL of PGH2 dissolved in an appropriate solvent is added to each well and after one minute at room temperature, the acidified stop solution containing FeCl2 is added. 4 μL of the total volume is transferred to a separate plate and diluted 750-fold in two separate steps before quantification of PGE2.
In order to quantitate the amount of PGE2 that has been formed, a homogenous time resolved fluorescent (HTRF) detection of PGE2 can be performed by the use of a commercially available kit from CisBio essentially according to the manufacturer's protocol. […]

pIC50	Structure (SMILES)
7.85	Cn1c(Nc2cc(CNC(=O)C3(C(F)(F)F)CC3)ccc2Cl)nc2cc(F)c(N3CCC(C)(C)CC3)cc21 [Example 87]
7.82	Cn1c(Nc2cc(CNC(=O)C(N)C(F)(F)F)ccc2Cl)nc2cc(Cl)c(N3CCCC(C(F)(F)F)C3)cc21 (stereo not drawn) [Example 65]
8.62	Cn1c(Nc2cc(CNC(=O)C3(C(F)(F)F)CC3)ccc2Cl)nc2cc(Cl)c(N3CCC(F)(F)CC3)cc21 [Example 79]
6.85	CN1CCN(c2cc3c(cc2Cl)nc(Nc2cc(CNC(=O)C4(C(F)(F)F)CC4)ccc2Cl)n3C)CC1 [Example 11, N-{4-Chloro-3-[5-chloro-1-methyl-6-(4-methyl-piperazin-1-yl)-1H-benzimidazol-2-ylamino]-benzyl}-1-trifluoromethyl-cyclopropanecarboxamide]
8.04	Cn1c(Nc2cc(CNC(=O)C3(C(F)(F)F)CC3)c(F)cc2Cl)nc2cc(Cl)c(N3CCC(C)(C)CC3)cc21 [Example 115]
7.28	CC1(C(=O)NCc2ccc(Cl)c(Nc3nc4ccc(N5CCCC5)cc4[nH]3)c2)CCCCC1 [Example 118]
6.20	CN1CCN(c2cc3[nH]c(Nc4cc(CNC(=O)C5(C(F)(F)F)CC5)ccc4Cl)nc3cc2Cl)CC1 [Example 129]
7.82	N#Cc1cc2nc(Nc3cc(CNC(=O)C4(C(F)(F)F)CC4)ccc3Cl)[nH]c2cc1N1CCCC(C(F)(F)F)C1 (stereo not drawn) [Example 130]
8.82	Cn1c(Nc2cc(CNS(=O)(=O)C(C)(C)C)ccc2C(F)(F)F)nc2cc(Cl)c(N3CCC(C(F)(F)F)CC3)cc21 [Example 110, N-(4-Trifluoromethyl-3-(5-chloro-1-methyl-6-(4-trifluoromethyl-piperidin-1-yl)-1H-benzo[d]imidazol-2-ylamino)benzyl)-2-methylpropane-2-sulfonamide]
7.62	CC1(C(=O)NCc2ccc(Cl)c(Nc3nc4cc(N5CCCC5)ccc4[nH]3)c2)CCCC1 [Example 28]
6.15	CN(C)CC1CCN(c2cc3[nH]c(Nc4cc(CNC(=O)C(C)(C)C)ccc4Cl)nc3cc2Cl)C1 (stereo not drawn) [Example 3, N-{4-Chloro-3-[5-chloro-6-(3-dimethylaminomethyl-pyrrolidin-1-yl)-1H-benzimidazol-2-ylamino]-benzyl}-2,2-dimethyl-propionamide]
7.66	Cn1c(Nc2cc(CNC(=O)C3(C(F)(F)F)CC3)ccc2F)nc2cc(Cl)c(N3CCC(F)(F)CC3)cc21 [Example 112]
8.89	Cn1c(Nc2cc(CNC(=O)C3(C(F)(F)F)CC3)ccc2Cl)nc2cc(Cl)c(N3CCN(c4ccc(C(F)(F)F)cc4)CC3)cc21 [Example 83, N-{4-Chloro-3-[5-chloro-1-methyl-6-(4-(4-trifluoromethylphenyl)-piperazin-1-yl)-1H-benzimidazol-2-ylamino]-benzyl}-1-trifluoromethyl-cyclopropanamide]
6.76	O=C(NCc1ccc(Cl)c(Nc2nc3cc(Cl)c(N4CCOCC4)cc3[nH]2)c1)C1(C(F)(F)F)CC1 [Example 128]
8.15	Cn1c(Nc2cc(CNC(=O)C3(C(F)(F)F)CC3)ccc2Cl)nc2cc(F)c(N3CCC(C(F)(F)F)CC3)cc21 [Example 86, N-{4-Chloro-3-[5-fluoro-1-methyl-6-(4-trifluoromethyl-piperidin-1-yl)-1H-benzimidazol-2-ylamino]-benzyl}-1-trifluoromethyl-cyclopropanamide]
8.21	O=C(NCc1ccc(Cl)c(Nc2nc3cc(Cl)c(N4CCC(C(F)(F)F)CC4)cc3n2CC(F)(F)F)c1)C1(C(F)(F)F)CC1 [Example 89]
7.62	CC(C)(C)C(=O)NCc1ccc(Cl)c(Nc2nc3cc(Cl)c(N4CCC5(CC5)C4)cc3[nH]2)c1 [Example 4, N-{3-[6-(5-Aza-spiro[2.4]hept-5-yl)-5-chloro-1H-benzimidazol-2-ylamino]-4-chloro-benzyl}-2,2-dimethyl-propionamide]
8.11	Cn1c(Nc2cc(CNS(=O)(=O)C(C)(C)C)ccc2Cl)nc2cc(Cl)c(N3CCN(c4ccc(C(F)(F)F)cc4)CC3)cc21 [Example 100]
7.89	Cn1c(Nc2cc(CNC(=O)C3(O)CC3)ccc2C(F)(F)F)nc2cc(Cl)c(N3CCC(C(F)(F)F)CC3)cc21 [Example 107]
8.60	Cn1c(Nc2cc(CNC(=O)C(C)(N)C(F)(F)F)ccc2Cl)nc2cc(Cl)c(N3CCCC(C(F)(F)F)C3)cc21 (stereo not drawn) [Example 1, 2-Amino-N-{4-chloro-3-[5-chloro-1-methyl-6-(3-(trifluoromethyl)piperidin-1-yl)-1H-benzo[d]imidazol-2-ylamino]benzyl}-3,3,3-trifluoro-2-methylpropanamide]
8.60	Cn1c(Nc2cc(CNC(=O)C3(C(F)(F)F)CC3)ccc2Cl)nc2cc(Cl)c(N3CCC(C(F)(F)F)CC3)cc21 [Example 71, N-{4-Chloro-3-[5-chloro-1-methyl-6-(4-trifluoromethyl-piperidin-1-yl)-1H-benzimidazol-2-ylamino]benzyl}-1-trifluoromethyl-cyclopropaneamide]
8.41	CC(C(=O)NCc1ccc(C(F)(F)F)c(Nc2nc3cc(Cl)c(N4CCC(C(F)(F)F)CC4)cc3n2C)c1)C(F)(F)F (stereo not drawn) [Example 105, N-{4-Trifluoromethyl-3-[5-chloro-1-methyl-6-(4-trifluoromethyl-piperidin-1-yl)-1H-benzimidazol-2-ylamino]-benzyl}-3,3,3-trifluoro-2-methyl-propanamide]
7.82	CCC(C)(CC)C(=O)NCc1ccc(Cl)c(Nc2nc3cc(N4CCCC4)ccc3[nH]2)c1 [Example 16]
7.28	CC1CCCCC1C(=O)NCc1ccc(Cl)c(Nc2nc3cc(N4CCCC4)ccc3[nH]2)c1 (stereo not drawn) [Example 19]
7.22	CC1(C(=O)NCc2ccc(Cl)c(Nc3nc4cc(Cl)c(N5CCOCC5)cc4[nH]3)c2)CCCCC1 [Example 121]
7.96	Cn1c(Nc2cc(CNC(=O)C3(C(F)(F)F)CC3)ccc2F)nc2cc(C#N)c(N3CCC(C(F)(F)F)CC3)cc21 [Example 113]
8.52	Cn1c(Nc2cc(CNC(=O)C(C)(F)F)ccc2Cl)nc2cc(Cl)c(N3CCCC(C(F)(F)F)C3)cc21 (stereo not drawn) [Example 15]
6.92	CC(C)(C)C(=O)NCc1ccc(OC(F)(F)F)c(Nc2nc3cc(C#N)c(N4CCCC(C(F)(F)F)C4)cc3[nH]2)c1 (stereo not drawn) [Example 117, N-{3-(5-Cyano-6-[3-trifluoromethyl-piperidin-1-yl)-1H-benzo[d]imidazol-2-ylamino]-4-trifluoromethoxy-benzyl}-2,2-dimethyl-propionamide]
< 7.00	CC1(C(=O)NCc2ccc(Cl)c(Nc3nc4ccc(N5CCOCC5)cc4[nH]3)c2)CCCCC1 [Example 119]
8.23	Cn1c(Nc2cc(CNC(=O)C3(C(F)(F)F)CC3)cc(F)c2Cl)nc2cc(Cl)c(N3CCC(C(F)(F)F)CC3)cc21 [Example 116, N-{4-Chloro-5-fluoro-3-[5-chloro-1-methyl-6-(4-trifluoromethyl-piperidin-1-yl)-1H-benzimidazol-2-ylamino]-benzyl}-1-trifluoromethyl-cyclopropanamide]

From US8466186B2, “Compounds” (Boehringer Ingelheim International GmbH, priority 2010, dated 2013)
